Test system: 817829-284-R-J1-PDC complex spheroid viability
Experiment: Anticancer human tumor 817829-284-R-J1-PDC patient-derived colon adenocarcinoma cell line growth inhibition [POLQ]
Settings: for IC50: curve of first compound; for viability, T/C: stronger effect = lower value; active = viability on the fitted dose curve at most 10% of control; inactive = the rest
Method in brief: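 Complex spheroid viability model combining PDC tumour cells with endothelial (HUVEC) and MSC stromal cells. Novobiocin, ART-558 or RP6685 were tested singly and in combination with standard and investigational anticancer drugs. Each was titrated in half-log steps from near clinical Cmax, or from 10 microM where Cmax was unknown.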

[1] = second compound 0.0316 µM, first compound 0.0316 µM
[2] = second compound 0.0316 µM, first compound 0.1 µM
[3] = second compound 0.0316 µM, first compound 0.316 µM
[4] = second compound 0.0316 µM, first compound 1 µM
[5] = second compound 0.0316 µM, first compound 3.16 µM
[6] = second compound 0.0316 µM, first compound 10 µM
[7] = second compound 0.1 µM, first compound 0.0316 µM
[8] = second compound 0.1 µM, first compound 0.1 µM
[9] = second compound 0.1 µM, first compound 0.316 µM
[10] = second compound 0.1 µM, first compound 1 µM
[11] = second compound 0.1 µM, first compound 3.16 µM
[12] = second compound 0.1 µM, first compound 10 µM
[13] = second compound 0.316 µM, first compound 0.0316 µM
[14] = second compound 0.316 µM, first compound 0.1 µM
[15] = second compound 0.316 µM, first compound 0.316 µM
[16] = second compound 0.316 µM, first compound 1 µM
[17] = second compound 0.316 µM, first compound 3.16 µM
[18] = second compound 0.316 µM, first compound 10 µM
[19] = second compound 1 µM, first compound 0.0316 µM
[20] = second compound 1 µM, first compound 0.1 µM
[21] = second compound 1 µM, first compound 0.316 µM
[22] = second compound 1 µM, first compound 1 µM
[23] = second compound 1 µM, first compound 3.16 µM
[24] = second compound 1 µM, first compound 10 µM
[25] = second compound 3.16 µM, first compound 0.0316 µM
[26] = second compound 3.16 µM, first compound 0.1 µM
[27] = second compound 3.16 µM, first compound 0.316 µM
[28] = second compound 3.16 µM, first compound 1 µM
[29] = second compound 3.16 µM, first compound 3.16 µM
[30] = second compound 3.16 µM, first compound 10 µM
[31] = second compound 10 µM, first compound 0.0316 µM
[32] = second compound 10 µM, first compound 0.1 µM
[33] = second compound 10 µM, first compound 0.316 µM
[34] = second compound 10 µM, first compound 1 µM
[35] = second compound 10 µM, first compound 3.16 µM
[36] = second compound 10 µM, first compound 10 µM
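Also: spheroids exposed to compounds for 7 days.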
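For viability, T/C in this document: 100% = DMSO vehicle-treated spheroids.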

CC(=O)O[C@H]1C(=O)[C@@]2(C)[C@H]([C@H](OC(=O)c3ccccc3)[C@]3(O)C[C@H](OC(=O)[C@H](O)[C@@H](NC(=O)c4ccccc4)c4ccccc4)C(C)=C1C3(C)C)[C@]1(OC(C)=O)CO[C@@H]1C[C@@H]2O + Nc1ccc(C#CCN(C(=O)Cc2ncc(C(F)(F)F)cc2C(F)(F)F)c2ccc(F)cc2)nn1
active: viability, T/C (second compound 0.0316 µM, first compound 0.00949 µM) 5.03% | viability, T/C (second compound 0.0316 µM, first compound 0.03 µM) 3.67% | viability, T/C (second compound 0.0316 µM, first compound 0.0949 µM) 3.6% | viability, T/C (second compound 0.0316 µM, first compound 0.3 µM) 4.54% | viability, T/C (second compound 0.0316 µM, first compound 0.949 µM) 3.38% | viability, T/C (second compound 0.0316 µM, first compound 3 µM) 3.49% | viability, T/C (second compound 0.1 µM, first compound 0.00949 µM) 4.54% | viability, T/C (second compound 0.1 µM, first compound 0.03 µM) 3.69% | viability, T/C (second compound 0.1 µM, first compound 0.0949 µM) 3.4% | viability, T/C (second compound 0.1 µM, first compound 0.3 µM) 3.32% | viability, T/C (second compound 0.1 µM, first compound 0.949 µM) 3.65% | viability, T/C (second compound 0.1 µM, first compound 3 µM) 3.64% | viability, T/C (second compound 0.316 µM, first compound 0.00949 µM) 4.71% | viability, T/C (second compound 0.316 µM, first compound 0.03 µM) 3.72% | viability, T/C (second compound 0.316 µM, first compound 0.0949 µM) 3.26% | viability, T/C (second compound 0.316 µM, first compound 0.3 µM) 3.47% | viability, T/C (second compound 0.316 µM, first compound 0.949 µM) 3.51% | viability, T/C (second compound 0.316 µM, first compound 3 µM) 3.52% | viability, T/C (second compound 1 µM, first compound 0.00949 µM) 4.2% | viability, T/C (second compound 1 µM, first compound 0.03 µM) 4.2% | viability, T/C (second compound 1 µM, first compound 0.0949 µM) 3.64% | viability, T/C (second compound 1 µM, first compound 0.3 µM) 3.16% | viability, T/C (second compound 1 µM, first compound 0.949 µM) 3.49% | viability, T/C (second compound 1 µM, first compound 3 µM) 3.91% | viability, T/C (second compound 3.16 µM, first compound 0.00949 µM) 3.91% | viability, T/C (second compound 3.16 µM, first compound 0.03 µM) 3.81% | viability, T/C (second compound 3.16 µM, first compound 0.0949 µM) 3.99% | viability, T/C (second compound 3.16 µM, first compound 0.3 µM) 3.89% | viability, T/C (second compound 3.16 µM, first compound 0.949 µM) 3.75% | viability, T/C (second compound 3.16 µM, first compound 3 µM) 3.61% | viability, T/C (second compound 10 µM, first compound 0.00949 µM) 4.68% | viability, T/C (second compound 10 µM, first compound 0.03 µM) 3.73% | viability, T/C (second compound 10 µM, first compound 0.0949 µM) 3.81% | viability, T/C (second compound 10 µM, first compound 0.3 µM) 3.76% | viability, T/C (second compound 10 µM, first compound 0.949 µM) 3.38% | viability, T/C (second compound 10 µM, first compound 3 µM) 3.83%
< 9.49 nM: IC50 (second compound 0.0316 µM) | IC50 (second compound 0.1 µM) | IC50 (second compound 0.316 µM) | IC50 (second compound 1 µM) | IC50 (second compound 3.16 µM) | IC50 (second compound 10 µM)

COc1cc(C2c3cc4c(cc3C(OC3OC5COC(C)OC5C(O)C3O)C3COC(=O)C23)OCO4)cc(OC)c1O (stereo unspecified) + Nc1ccc(C#CCN(C(=O)Cc2ncc(C(F)(F)F)cc2C(F)(F)F)c2ccc(F)cc2)nn1
68.1 nM: IC50 (second compound 0.0316 µM)
99.6 nM: IC50 (second compound 0.1 µM)
76.2 nM: IC50 (second compound 0.316 µM)
active: viability, T/C [35] 10.7% | viability, T/C [36] 5.77%
129 nM: IC50 (second compound 1 µM)
73.7 nM: IC50 (second compound 10 µM)
83.6 nM: IC50 (second compound 3.16 µM)
inactive: viability, T/C [1] 67.2% | viability, T/C [2] 43.9% | viability, T/C [3] 15.4% | viability, T/C [4] 24.5% | viability, T/C [5] 13.7% | viability, T/C [6] 6.78% | viability, T/C [7] 100% | viability, T/C [8] 50.4% | viability, T/C [9] 18% | viability, T/C [10] 20.8% | viability, T/C [11] 12.4% | viability, T/C [12] 7.13% | viability, T/C [13] 88% | viability, T/C [14] 38.7% | viability, T/C [15] 15.3% | viability, T/C [16] 24.4% | viability, T/C [17] 13.6% | viability, T/C [18] 4.94% | viability, T/C [19] 79.9% | viability, T/C [20] 59.5% | viability, T/C [21] 16.7% | viability, T/C [22] 19.8% | viability, T/C [23] 11.6% | viability, T/C [24] 5.6% | viability, T/C [25] 74.6% | viability, T/C [26] 47.3% | viability, T/C [27] 17.4% | viability, T/C [28] 22.4% | viability, T/C [29] 12% | viability, T/C [30] 6.2% | viability, T/C [31] 71.9% | viability, T/C [32] 42.7% | viability, T/C [33] 18.8% | viability, T/C [34] 13.1%

O=c1[nH]cc(F)c(=O)[nH]1 + Nc1ccc(C#CCN(C(=O)Cc2ncc(C(F)(F)F)cc2C(F)(F)F)c2ccc(F)cc2)nn1
1370 nM: IC50 (second compound 3.16 µM)
1250 nM: IC50 (second compound 0.0316 µM)
1710 nM: IC50 (second compound 0.316 µM)
inactive: viability, T/C [1] 99.6% | viability, T/C [2] 110% | viability, T/C [3] 95.6% | viability, T/C [4] 54.1% | viability, T/C [5] 34% | viability, T/C [6] 28.1% | viability, T/C [7] 96.4% | viability, T/C [8] 102% | viability, T/C [9] 84.4% | viability, T/C [10] 64.4% | viability, T/C [11] 35.8% | viability, T/C [12] 27% | viability, T/C [13] 100% | viability, T/C [14] 98.8% | viability, T/C [15] 93.3% | viability, T/C [16] 63.9% | viability, T/C [17] 34% | viability, T/C [18] 23.7% | viability, T/C [19] 108% | viability, T/C [20] 89.3% | viability, T/C [21] 93.5% | viability, T/C [22] 60.5% | viability, T/C [23] 33.7% | viability, T/C [24] 26.1% | viability, T/C [25] 86.2% | viability, T/C [26] 108% | viability, T/C [27] 77.2% | viability, T/C [28] 55.8% | viability, T/C [29] 38.1% | viability, T/C [30] 27.4% | viability, T/C [31] 92.1% | viability, T/C [32] 92.8% | viability, T/C [33] 85.5% | viability, T/C [34] 54.8% | viability, T/C [35] 33% | viability, T/C [36] 26.7%
1300 nM: IC50 (second compound 10 µM)
1600 nM: IC50 (second compound 1 µM)
1770 nM: IC50 (second compound 0.1 µM)

— PubChem BioAssay AID1963839 (Molecular Pharmacology Branch, DTP, NCI, 2024)
